Results taken from patent US20050058665A1, “Identification of virulence determinants activators in prokaryotic pathogens” (Boston Medical Center Corporation, priority 1998, published 2005).

B1: wild-type DtxR (protein, UniProt P0DJL7 1-226, looked up)
Diphtheria toxin repressor: MKDLVDTTEMYLRTIYELEEEGVTPLRARIAERLEQSGPTVSQTVARMERDGLVVVASDRSLQMTPTGRTLATAVMRKHRLAERLLTDIIGLDINKVHDEACRWEHVMSDEVERRLVKVLKDVSRSPFGNPIPGLDELGVGNSDAAVPGTRVIDAATSMPRKVRIVQINEIFQVETDQFTQLLDADIRVGSEVEIVDRDGHITLSHNGKDVELIDDLAHTIRIEEL

What was measured:
DtxR = target: T1, DtxR (Corynebacterium diphtheriae, UniProt P0DJL7); test: PSDT system, chloramphenicol resistance phenotype of the indicator strain; type: cell-based; conditions: E. coli TOP10/λRS65T/pSC6/pRDA; DP added to growth medium
T1 construct: expressed in transfected cells; host or cells: E. coli TOP10/λRS65T/pSC6/pRDA
T1 sequence (P0DJL7 1-226): B1 Diphtheria toxin repressor
Source text: Development of the PSDT System. The PSDT system, which consists of a lysogenic E. coli TOP1O host strain carrying the reporter gene cat on an integrated λ phage, λRS65T, and a set of detector plasmids, is illustrated in FIG. 1. Expression of cat on λRS65T is controlled by the tetA promoter/operator (tetAPO), and, in the absence of the tetracycline repressor (TetR), E. coli TOP10/λRS65T is resistant to chloramphenicol (Cm^R).
We next constructed the detector plasmid pSC6, which carries the tetR gene under the control of the diphtheria toxPO. When pSC6 is transformed into E. coli TOP10/λRS65T, the bacterial host strain becomes Cm-sensitive (Cm^S) by virtue of the constitutive expression of tetR, which recognizes and binds to the tetAO and represses cat gene expression. However, if a functional dtxR allele is introduced into the bacterial host on a second compatible plasmid, PRDA, the interaction between DtxR and the toxO will repress the expression of tetR, and the bacterial host, E. coli TOP10/λRS65T/pSC6/pRDA, then will regain its CM^rphenotype.

toxPO-lacZ = test: β-galactosidase assay in toxPO-lacZ reporter strain; type: cell-based; conditions: E. coli DH5α/λRS45 toxPO; LB broth, absence or presence of increasing concentrations of DP (up to 250 μM)
Protocol: β-Galactosidase Assay. β-galactosidase activity was measured essentially as described by Miller (Miller, J. H. (1972) Experiments in Molecular Genetics (Cold Spring Harbor Lab. Press, Plainview, N.Y.)). In brief, 0.5 ml of an overnight culture at ^A600 of =1.0 were lysed by the addition of lysis mix (chloroform:10% SDS, 2:1), vortexing the mixture for 10 sec and transferring 200 μl to 800 ul lacZ buffer (60 mM Na2HPO4/40 mM NaH2PO4/10 mM KCl/1 mM MgSO4/50 mM β-mercaptoethanol). The reaction was initiated by adding 200 μl of o-nitrophenyl β-D-galactopyranoside (Sigma) (4 mg/ml). After incubation at room temperature (5 min-1 hr), the reaction was stopped by the addition of 0.5 ml of 1M sodium carbonate. Absorbance was measured at 420 and 550 nm, and β-galactosidase units were calculated according to Miller, supra.
The resulting plasmids were designated pDM2, pDM3, pDM11, and pDM5, respectively. The pDM series of plasmids then were transformed individually into E. coli DH5α/λRS45 toxPO. This reporter strain carries a transcriptional fusion in which the lacZ gene is under the control of the diphtheria toxPO, toxPO-lacZ, and, as a result, the synthesis of β-galactosidase is regulated by their respective dtxR gene products. Individual strains were grown in LB broth supplemented with appropriate antibiotics in either the absence or presence of increasing concentrations of DP. […]

Molecule	chloramphenicol resistance phenotype (DtxR)	β-galactosidase activity (toxPO-lacZ)
c1ccc(-c2ccccn2)nc1 [DP, 2,2′-dipyridyl]	phenotypic conversion from Cm^R to Cm^S	–
B1	–	β-galactosidase activity increases
